Experimental data as given in PubChem BioAssay (NCI).
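Cultured in 96-well plates, cells were exposed to test compound for 48 hours across five concentrations. Abbreviation: GI50, concentration required for 50% inhibition of growth. The concentration for full growth arrest is given as TGI.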

Tests used:
Experiment in all cases: NCI-60 cell line screen, 48 h
[1] = tested on: SNB-75 CNS
[2] = tested on: U251 CNS
[3] = tested on: OVCAR-8 ovarian
[4] = tested on: SF-268 CNS
[5] = tested on: HT29 colon
[6] = tested on: RXF 393 renal
[7] = tested on: KM12 colon
[8] = tested on: SK-OV-3 ovarian
[9] = tested on: CCRF-CEM leukemia
[10] = tested on: CAKI-1 renal
[11] = tested on: SF-539 CNS
[12] = tested on: UO-31 renal
[13] = tested on: EKVX NSCLC
[14] = tested on: OVCAR-3 ovarian
[15] = tested on: BT-549 breast
[16] = tested on: K-562 leukemia
[17] = tested on: MOLT-4 leukemia
[18] = tested on: T-47D breast
[19] = tested on: NCI-H522 lung
[20] = tested on: UACC-257 melanoma
[21] = tested on: SK-MEL-2 melanoma
[22] = tested on: HCT-15 colon
[23] = tested on: COLO 205 colon
[24] = tested on: MALME-3M melanoma
[25] = tested on: SNB-19 CNS
[26] = tested on: HCT-116 colon
[27] = tested on: SN12C renal
[28] = tested on: OVCAR-5 ovarian
[29] = tested on: A498 renal
[30] = tested on: NCI-H23 lung
[31] = tested on: HL-60(TB) leukemia
[32] = tested on: NCI-H460 lung
[33] = tested on: NCI-H226 lung
[34] = tested on: NCI/ADR-RES ovarian
[35] = tested on: ACHN renal
[36] = tested on: MCF7 breast
[37] = tested on: 786-0 renal
[38] = tested on: SF-295 CNS
[39] = tested on: OVCAR-4 ovarian
[40] = tested on: A549 NSCLC
[41] = tested on: TK-10 renal
[42] = tested on: SK-MEL-5 melanoma
[43] = tested on: RPMI-8226 leukemia
[44] = tested on: MDA-MB-435
[45] = tested on: M14 melanoma
[46] = tested on: DU-145 prostate
[47] = tested on: SR leukemia
[48] = tested on: SW-620 colon
[49] = tested on: HOP-92 NSCLC
[50] = tested on: HS 578T breast
[51] = tested on: LOX IMVI melanoma
[52] = tested on: HCC-2998 colon
[53] = tested on: PC-3 prostate
[54] = tested on: HOP-62 NSCLC
[55] = tested on: SK-MEL-28 melanoma
[56] = tested on: MDA-MB-231 breast
[57] = tested on: UACC-62 melanoma
[58] = tested on: IGROV1 ovarian

In the case of `Cc1cc2nc(CS)[nH]c2cc1C`, the GI50 [1] is reported as 14.9 µM, the TGI [1] is reported as 33.9 µM and the GI50 [2] is reported as 14 µM. The TGI [2] was 30 µM, the GI50 [3] was 20.2 µM and the TGI [3] was 50.6 µM. It also gave a GI50 [4] of 20.5 µM, a TGI [4] of 57.5 µM and a GI50 [5] of 6.39 µM. It also gave a TGI [5] of 22.7 µM, a GI50 [6] of 17.5 µM and a TGI [6] of 31.6 µM. It also gave a GI50 [7] of 15.8 µM, a TGI [7] of 32.2 µM and a GI50 [8] of 37.5 µM. The TGI [8] was greater than 100 µM, the GI50 [9] was 5.44 µM and the TGI [9] was 75.1 µM. For the same molecule, the GI50 [10] was 16.9 µM, the TGI [10] was 35.9 µM and the GI50 [11] was 20.5 µM. The TGI [11] was 45 µM, the GI50 [12] was 14.2 µM and the TGI [12] was 28.1 µM. It also gave a GI50 [13] of 25.1 µM, a TGI [13] greater than 100 µM and a GI50 [14] of 14.4 µM. The TGI [14] was 27.9 µM, the GI50 [15] was 24.5 µM and the TGI [15] was 66.5 µM. For the same molecule, the GI50 [16] was 22.4 µM, the TGI [16] was 67.3 µM and the GI50 [17] was 2.85 µM. The TGI [17] was 8.53 µM, the GI50 [18] was 15.6 µM and the TGI [18] was 37.5 µM. The GI50 [19] was 3.48 µM, the TGI [19] was 19.4 µM and the GI50 [20] was 20.9 µM. The TGI [20] was 54 µM, the GI50 [21] was 15.7 µM and the TGI [21] was 34.7 µM. For the same molecule, the GI50 [22] was 18.6 µM, the TGI [22] was 43.7 µM and the GI50 [23] was 23.6 µM. For the same molecule, the TGI [23] was 98.5 µM, the GI50 [24] was 13.4 µM and the TGI [24] was 32 µM. The GI50 [25] was 27.6 µM, the TGI [25] was greater than 100 µM and the GI50 [26] was 14.9 µM. It also gave a TGI [26] of 29.4 µM, a GI50 [27] of 25.1 µM and a TGI [27] of 71.3 µM. It also gave a GI50 [28] of 21.4 µM, a TGI [28] of 43.5 µM and a GI50 [29] of 18.9 µM. For the same molecule, the TGI [29] was greater than 100 µM, the GI50 [30] was 28.8 µM and the TGI [30] was greater than 100 µM. It also gave a GI50 [31] of 12.4 µM, a TGI [31] greater than 100 µM and a GI50 [32] of 18.7 µM. For the same molecule, the TGI [32] was 54.6 µM, the GI50 [33] was 14 µM and the TGI [33] was 28.7 µM. It also gave a GI50 [34] of 22.8 µM, a TGI [34] of 95.4 µM and a GI50 [35] of 15.4 µM. It also gave a TGI [35] of 30.6 µM, a GI50 [36] of 14.7 µM and a TGI [36] of 31.2 µM. The GI50 [37] was 17.7 µM, the TGI [37] was 34.3 µM and the GI50 [38] was 5.35 µM. The TGI [38] was 25 µM, the GI50 [39] was 13.1 µM and the TGI [39] was 32 µM. The GI50 [40] was 36.8 µM, the TGI [40] was greater than 100 µM and the GI50 [41] was 15 µM. For the same molecule, the TGI [41] was 29.7 µM, the GI50 [42] was 13.7 µM and the TGI [42] was 27.2 µM. The GI50 [43] was 14.3 µM, the TGI [43] was 40.7 µM and the GI50 [44] was 14.4 µM. For the same molecule, the TGI [44] was 28.7 µM, the GI50 [45] was 15.3 µM and the TGI [45] was 36.8 µM. For the same molecule, the GI50 [46] was 20.8 µM, the TGI [46] was 48.5 µM and the GI50 [47] was 6.69 µM. For the same molecule, the TGI [47] was 37.6 µM, the GI50 [48] was 13 µM and the TGI [48] was 30.9 µM. For the same molecule, the GI50 [49] was 18.8 µM, the TGI [49] was 76.3 µM and the GI50 [50] was 23.3 µM. The TGI [50] was 85.5 µM, the GI50 [51] was 12.7 µM and the TGI [51] was 30.6 µM. For the same molecule, the GI50 [52] was 22.9 µM, the TGI [52] was 66.2 µM and the GI50 [53] was 16.1 µM. The TGI [53] was 46.4 µM, the GI50 [54] was 15.2 µM and the TGI [54] was 30.7 µM. It also gave a GI50 [55] of 15.5 µM, a TGI [55] of 32.2 µM and a GI50 [56] of 20.2 µM. For the same molecule, the TGI [56] was 50 µM, the GI50 [57] was 13.6 µM and the TGI [57] was 28.2 µM. The GI50 [58] was 16.7 µM and the TGI [58] was 34.1 µM.
